The text below walks through data of patent publication US9682031B2, “Microcapsules comprising benzoyl peroxide and topical compositions comprising them” (Tagra Biotechnologies Ltd., priority 2009, dated 2017).

What all share (assay type): physicochemical
Series [1] can be described thus: Chemical stability of BPO in aqueous gel formulation, 40° C., 90 days (HPLC). The following applies: 5% BPO, 90 days at 40° C. (FIG. 21). Here is the method: Geogard (0.7 g, Lonza) was dissolved in water by heating to 40-50° C. and the solution was allowed to cool to room temperature. Clindamycin phosphate was optionally dissolved in the solution (in formulations comprising antibiotics). Xanthan gum (1 g, Interaxion) was slowly added under medium mixing until the xanthan gum gel was formed. BPO microcapsules were then added to the gel by simple mixing. The composition of the gel formulation is detailed in Table 8 below.
BPO microcapsules were incorporated into the gel formulation (gel base comprising no clindamycin) at final BPO concentration of 5% and incubated at 40° C. over 90 days. Stability studies were performed for compositions comprising only encapsulated BPO or encapsulated BPO in combination with 0.75-1% of Clindamycin Phosphate. BPO concentration was determined immediately after incorporation into gel formulation and after 30, 60 and 90 days. Total concentration of BPO was determined by mixing 1 gr of the gel formulation with dichloromethane/methanollacetonitrile solution. BPO concentration in water phase was determined after separation of microcapsules from gel by centrifugation. The water phase was mixed with dichloromethane/methanol/acetonitrile solution in order to extract BPO and its content was determined using HPLC.

The nature of series [2]: Chemical stability of BPO in gel containing 1% free retinol, 40° C., 30 days (HPLC). The following applies: encapsulated = sample 21; gel with 1% free retinol, 5% BPO, 30 days storage at 40° C. Here is the method: HPLC was used for BPO analysis following storage at 40° C. (encapsulated BPO vs. free BPO in a gel formulation containing 1% free retinol).
A short description of series [3]: Congo red oxidation sensitivity / qualitative diffusion test. The following applies: microcapsules = sample 2 (PMMA-BPO); 4% (w/w) BPO free or encapsulated, BPO/congo red 30:1, 50-55° C. Here is the method: Azo-dye congo red was used as a model for oxidation-sensitive component, the ratio BPO/congo red=30:1(w/w).
Three comparative systems were utilized: • 1—BPO microcapsules (sample 2) • 2—free BPO • 3—without BPO (blank)
For the preparation of (1) and (2), 9 g (ml) aqueous dispersion containing 4% (w/w) BPO (free or encapsulated) were suspended with 0.1% Tween™ 20 (polysorbate 20) and 9 g liquid vehicle and stirred in a 25 ml beaker with a magnetic stirrer. Following a mixing period of 30 minutes, the temperature of the system was raised to 50-55° C. and 1 ml of a 1% aqueous solution of congo red were added. The blank system (3) was prepared by stirring 9 ml 0.1% Tween™ 20 and 9 g liquid vehicle, and adding 1 ml of a 1% aqueous solution of congo red. After stirring the suspension for 1 minute, pictures of the three systems were taken.

In the case of `O=C(OOC(=O)c1ccccc1)c1ccccc1` [free BPO, benzoyl peroxide], the “decrease in the concentration of BPO” value in series [1] is “negligible decrease”. Further, the “relative content of BPO from the initial concentration” value in series [2] is reported as 36%. The “color of congo red solution” value in series [3] is “changed its color from red to yellow”.
